Usually pIC50 stands for −log10 of the IC50, conventionally taken in molar units. Low readings indicate a high IC50, high ones a low IC50.

pIC50: −log10 of the molar value.

This is an account of results in patent US11708352B2, “Anti-cancer compounds” (THE REGENTS OF THE UNIVERSITY OF CALIFORNIA, priority 2015, dated 2023).

One test relates to OVCAR8. The test is described as follows: Cell viability assay in solid tumor cell lines (Cell-Titer Glo), OVCAR8. Conditions: Homo sapiens, OVCAR-8, 72 hours. The class given is cell-based. As for the experimental part: (§1) Cell Viability Assay in Solid Tumors Cell Lines (Data in FIG. 2)
(§2) Human cancer cell lines (lung, ovarian, breast pancreatic and mesothelioma) were purchased from the ATCC. The cell lines were cultured in RPMI 1640 (Life Technologies, Carlsbad, Calif.) supplemented with 10% fetal bovine serum (FBS) and antibiotics. […] At the end of treatment, cell proliferation was determined by an intracellular adenosine triphosphate monitoring system (Cell-Titer Glo-Promega).
(§3) Inhibitory activity was evaluated comparing treated versus control data using the GraphPad Prism 6.0 software.

A further test concerns the target T1, PARP1 (Homo sapiens, UniProt P09874).
T1 construct: purchased Trevigen 4677-096-K
The test is described as follows: PARP enzymatic activity inhibition (Trevigen HT Universal PARP Assay Kit). The class given is biochemical. As for the experimental part:
PARP Enzymatic Activity Inhibition: Determination of IC50 Values for Selected Compounds (Data in FIG. 1)
(§4) The half maximal inhibitory concentration (IC50) with respect to PARP inhibition was determined for each test compound by using Trevigen's HT Universal PARP Assay Kit, according to the manufacturer's protocol (Cat #4677-096-K, Gaithersburg, Md.). This assay measures the incorporation of biotinylated poly(ADP-ribose) onto histone proteins in a 96-well strip well format. This assay is ideal for the determination of IC50 values of known or suspected PARP inhibitors. Briefly, stock solutions of each test compound were prepared in DMSO. Histone strip wells were incubated for 30 minutes at room temperature with 50 μl/well of 1×PARP Buffer to rehydrate the histones. Serial dilutions of either test compound were added to appropriate wells. Diluted PARP enzyme (0.5 Unit/well) was then added to the wells containing compounds, and incubated for 10 minutes at room temperature. Subsequently, 25 μl of 1×PARP Cocktail, containing activated DNA, was distributed into each well. Three types of control wells were also analyzed; i. A negative control without PARP was prepared to determine background absorbance. ii. An activity control for PARP Inhibitor Study: 0.5 Unit/well PARP-HSA without inhibitors. These wells provided the 100% activity reference point. iii. And a PARP Standard Curve: Serial dilution of the PARP-HAS standard were prepared in cold microtubes with 1×PARP Buffer such that the total activity is 1 Unit/25 μl, 0.5 Units/25 μl, 0.25 Units/25 μl, 0.1 Units/25 μl, 0.05 Units/25 μl, 0.025 Units/25 and 0.01 Units/25 μl. 25 μl of each standard was added to triplicate wells. Following a 60 minutes incubation at room temperature, the strip wells were washed twice with 1×PBS+0.1% Triton X-100, and twice with 1×PBS. For activity detection, 50 μl per well of diluted Strep-HRP was added, and then incubated at room temperature for 60 minutes. Subsequently, 50 μl per well of pre-warmed TACS-Sapphire™ colorimetric substrate was added followed by a 15 minutes incubation, in the dark, at room temperature. The reactions were then stopped by adding 50 μl per well of 0.2M HCl or 5% Phosphoric Acid and read the absorbance at 450 nm.
The IC50 values were determined by performing non-linear regression analysis fitting velocities and the logarithm of inhibitor concentrations to a sigmoidal dose response with a variable slope model using the GraphPad Prism 6.0 software.

The test system of the next test is A549. The test is described as follows: Cell viability assay in solid tumor cell lines (Cell-Titer Glo), A549. The class given is cell-based. Conditions: Homo sapiens, 72 hours. As for the experimental part: as §1, §2, §3
In the next test the target is PARP2 (Homo sapiens, UniProt Q9UGN5). The test is described as follows: PARP enzymatic activity inhibition, PARP2 column. Type of test: biochemical. As for the experimental part:
as §4, with “And a PARP Standard Curve: Serial dilution of the PARP-HAS standard were prepared in cold microtubes with 1×PARP Buffer such that the total activity is 1 Unit/25 μl, 0.5 Units/25 μl, 0.25 Units/25 μl, 0.1 Units/25 μl, 0.05 Units/25 μl, 0.025 Units/25 and 0.01 Units/25 μl. 25 μl of each standard was added to triplicate wells. Following a 60 minutes incubation at room temperature, the strip wells were washed twice with 1×PBS+0.1% Triton X-100, and twice with 1×PBS. For activity detection, 50 μl per well of diluted Strep-HRP was added, and then incubated at room temperature for 60 minutes. Subsequently, 50 μl per well of pre-warmed TACS-Sapphire™ colorimetric substrate was added followed by a 15 minutes incubation, in the dark, at room temperature.” left out

The next test concerns the target ABL1 (Homo sapiens, UniProt P00519). Nature of the test: ABL kinase assay (Z'-LYTE biochemical kinase profiling). Conditions: ATP 10 μM final. As for the experimental part:
ABL Kinase Assays (Data in FIG. 1)
The direct inhibitory effect of the test compounds on the ABL kinases activity was assessed using the Z′-LYTE biochemical kinase profiling assays (SelectScreen Kinase Profiling assays, Life Technologies). The Z′-LYTE biochemical assay employs a fluorescence-based, coupled-enzyme format and is based on the differential sensitivity of phosphorylated and non-phosphorylated peptides to proteolytic cleavage. The peptide substrate is labeled with two fluorophores (one at each end) that make up a FRET pair. In the primary reaction, the kinase transfers the gamma-phosphate of ATP to a single tyrosine, serine or threonine residue in a synthetic FRET-peptide. In the secondary reaction, a site-specific protease recognizes and cleaves non-phosphorylated FRET-peptides. Phosphorylation of FRET-peptides suppresses cleavage by the Development Reagent. Cleavage disrupts FRET between the donor and acceptor fluorophores on the FRET-peptide, whereas uncleaved, phosphorylated FRET-peptides maintain FRET. The extent of phosphorylation of the FRET-peptide can be calculated from the Emission Ratio between cleaved and uncleaved FRET-peptides. The Emission Ratio will remain low if the FRET-peptide is phosphorylated (i.e., no kinase inhibition) and will be high if the FRET-peptide is non-phosphorylated (i.e., kinase inhibition).
Using the above described assay, The Test Compounds were screened in 1% DMSO (final) in the well. 10 point titrations, 3-fold serial dilutions were conducted. Briefly, in a black 384-well plate serial dilutions of test compound or 100 nL 100× were mixed with kinase buffer peptide/Kinase Mixture and ATP Solution (10 μM final). After one hour Kinase Reaction incubation at room temperature, the development Reagent Solution was added. Subsequently, the fluorescence signals were measured using a fluorescence plate reader. Data were analyzed and the IC50 were calculated with XLfit graphing software using the sigmoidal dose-response model.

In a further test the test system is bovine brain tubulin. Nature of the test: Tubulin polymerization assay (Cytoskeleton kit BK011P). Type of test: biochemical. The note with it: % Inhibition versus control; compound concentration of 4 μM. An excerpt: Tubulin Polymerization Assay (Data in FIG. 1)
The high-throughput screening-tubulin polymerization assay kit (Cytoskeleton, Cat. #BK011P) is an economical one step procedure for determining the effects of drugs or proteins on tubulin polymerization. Polymerization is followed by fluorescence enhancement due to the incorporation of a fluorescent reporter into microtubules as polymerization occurs. The standard assay tubulin generates a polymerization curve representing the three phases of microtubule formation, namely nucleation, growth, and steady state equilibrium. Compounds that interact with tubulin will often alter one or more of the characteristic phases of polymerization. For example, the anti-mitotic drug paclitaxel eliminates the nucleation phase and enhances the Vmax of the growth phase. Similarly, the microtubule destabilizing drug, vinblastine (also antimitotic) causes a decrease in Vmax and a reduction in final polymer mass. Thus, one application of this assay is the identification of novel anti-mitotics.
The direct effects of the test compounds on tubulin polymerization were investigated using the abovementioned Tubulin polymerization assay kit (Cytoskeleton, Cat. #BK011P), as indicated by the manufacturer protocol. Briefly, bovine brain tubulin (400 μg/sample) in the presence of either 0.5% DMSO treated (control), 4 μM test compounds, 3 μM paclitaxel (Cytoskeleton), or 3 μM vinblastine (Cytoskeleton) was incubated in PEM buffer [80 mm PIPES, 1 mm EGTA, 1 mm MgCl2 (pH 6.8)] containing 1.0 mm GTP (G-PEM) and 15% glycerol, at 37 C. All samples (wells) contained 15% glycerol. The degree of polymerization over time was measured in a spectrophotometer (Biotek synergy HT plate reader) at 350 nm. All time points were plotted and analyzed using GraphPad Prism 6.0 software.
DMSO control was set as 0% inhibition. Positive values depict the percentage of decrease in Vmax and final polymer mass, as compared to control. Negative values are inversely correlated to degree of nucleation phase elimination and the percentage of increase of the Vmax, as compared to control.

Chain of PARP2 (Q9UGN5 whole entry, species assumed): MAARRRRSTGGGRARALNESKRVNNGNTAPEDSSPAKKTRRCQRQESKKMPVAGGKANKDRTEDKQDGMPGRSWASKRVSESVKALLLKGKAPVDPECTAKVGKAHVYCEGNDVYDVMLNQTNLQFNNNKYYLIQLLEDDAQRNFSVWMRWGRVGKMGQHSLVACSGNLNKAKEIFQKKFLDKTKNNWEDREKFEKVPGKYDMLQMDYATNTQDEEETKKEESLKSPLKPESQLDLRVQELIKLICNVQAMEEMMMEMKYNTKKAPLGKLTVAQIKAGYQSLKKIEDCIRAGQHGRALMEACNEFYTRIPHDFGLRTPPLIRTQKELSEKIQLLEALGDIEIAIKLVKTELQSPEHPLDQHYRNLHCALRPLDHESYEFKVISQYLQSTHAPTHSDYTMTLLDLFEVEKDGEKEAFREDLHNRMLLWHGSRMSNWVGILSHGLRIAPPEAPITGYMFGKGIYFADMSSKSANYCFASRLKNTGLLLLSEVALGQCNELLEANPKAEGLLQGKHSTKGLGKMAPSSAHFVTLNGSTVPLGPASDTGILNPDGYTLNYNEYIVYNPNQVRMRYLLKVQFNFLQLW
Chain of ABL1 (P00519 whole entry): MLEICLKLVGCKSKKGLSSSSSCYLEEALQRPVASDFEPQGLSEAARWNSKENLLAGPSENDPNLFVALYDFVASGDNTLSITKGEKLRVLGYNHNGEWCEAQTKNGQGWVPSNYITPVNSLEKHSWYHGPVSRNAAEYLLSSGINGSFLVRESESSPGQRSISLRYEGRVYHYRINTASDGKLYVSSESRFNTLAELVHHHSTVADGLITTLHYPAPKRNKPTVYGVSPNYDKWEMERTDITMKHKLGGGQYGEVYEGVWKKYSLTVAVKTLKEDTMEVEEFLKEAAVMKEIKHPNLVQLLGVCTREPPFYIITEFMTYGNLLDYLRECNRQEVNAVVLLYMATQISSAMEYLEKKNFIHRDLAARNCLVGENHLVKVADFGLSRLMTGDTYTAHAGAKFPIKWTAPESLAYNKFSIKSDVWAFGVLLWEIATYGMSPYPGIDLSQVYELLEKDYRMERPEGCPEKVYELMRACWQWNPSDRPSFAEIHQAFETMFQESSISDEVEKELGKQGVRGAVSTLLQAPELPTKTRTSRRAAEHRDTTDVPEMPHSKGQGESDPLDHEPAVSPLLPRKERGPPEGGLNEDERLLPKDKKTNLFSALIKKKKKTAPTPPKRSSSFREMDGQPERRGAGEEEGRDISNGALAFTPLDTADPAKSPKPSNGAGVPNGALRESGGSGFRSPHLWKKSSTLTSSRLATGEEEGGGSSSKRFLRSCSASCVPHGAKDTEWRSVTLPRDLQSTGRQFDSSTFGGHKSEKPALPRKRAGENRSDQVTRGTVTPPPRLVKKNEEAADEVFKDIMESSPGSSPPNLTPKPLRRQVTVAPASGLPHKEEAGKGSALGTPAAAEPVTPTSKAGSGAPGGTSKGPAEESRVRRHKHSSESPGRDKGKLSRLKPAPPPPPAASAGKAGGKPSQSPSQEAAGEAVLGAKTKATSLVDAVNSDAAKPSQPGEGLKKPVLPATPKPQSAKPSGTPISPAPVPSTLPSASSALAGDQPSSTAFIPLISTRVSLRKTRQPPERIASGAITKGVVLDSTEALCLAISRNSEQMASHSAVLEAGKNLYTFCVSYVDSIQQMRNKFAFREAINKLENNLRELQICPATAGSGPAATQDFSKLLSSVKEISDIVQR
T1 sequence (P09874 whole entry): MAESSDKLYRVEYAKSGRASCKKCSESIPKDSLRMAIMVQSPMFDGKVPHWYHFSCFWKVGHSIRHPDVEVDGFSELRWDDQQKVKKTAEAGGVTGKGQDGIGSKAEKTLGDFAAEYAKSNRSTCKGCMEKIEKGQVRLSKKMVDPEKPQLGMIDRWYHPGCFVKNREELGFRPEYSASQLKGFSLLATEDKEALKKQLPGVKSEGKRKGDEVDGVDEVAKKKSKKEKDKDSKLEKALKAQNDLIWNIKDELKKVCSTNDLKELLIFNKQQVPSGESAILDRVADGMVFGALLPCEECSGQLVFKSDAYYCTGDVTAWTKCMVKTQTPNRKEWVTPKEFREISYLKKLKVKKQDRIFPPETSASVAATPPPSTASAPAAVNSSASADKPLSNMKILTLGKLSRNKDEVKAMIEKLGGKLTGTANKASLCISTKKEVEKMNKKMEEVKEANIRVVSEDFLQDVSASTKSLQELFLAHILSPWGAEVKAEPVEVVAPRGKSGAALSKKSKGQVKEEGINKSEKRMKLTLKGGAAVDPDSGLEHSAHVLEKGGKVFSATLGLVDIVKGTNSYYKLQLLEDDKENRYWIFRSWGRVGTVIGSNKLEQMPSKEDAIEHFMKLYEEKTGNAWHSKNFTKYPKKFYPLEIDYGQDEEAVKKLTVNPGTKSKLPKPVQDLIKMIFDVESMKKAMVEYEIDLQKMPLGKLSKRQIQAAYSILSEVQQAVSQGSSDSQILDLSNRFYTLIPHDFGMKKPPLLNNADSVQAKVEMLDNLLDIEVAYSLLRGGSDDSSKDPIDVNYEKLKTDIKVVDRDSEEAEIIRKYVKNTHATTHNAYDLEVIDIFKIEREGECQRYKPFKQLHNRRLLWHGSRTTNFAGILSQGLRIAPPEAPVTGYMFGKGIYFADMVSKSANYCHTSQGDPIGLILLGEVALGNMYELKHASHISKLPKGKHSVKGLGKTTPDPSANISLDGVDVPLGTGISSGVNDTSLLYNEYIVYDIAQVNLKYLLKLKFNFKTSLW

As for `CCOC(=O)Nc1nc2cc(-c3n[nH]c(=O)c4ccccc34)ccc2[nH]1` [Compound No. 1, Ethyl (5-(4-oxo-3,4-dihydrophthalazin-1-yl)-1H-benzimidazol-2-yl)carbamate], the negative-log IC50 (pIC50) is greater than 6.30 in the test with OVCAR8; 5.00 to 5.30 on PARP1; greater than 6.30 in the test on A549; greater than 6.30 against PARP2; greater than 6.30 at ABL1. In addition, the “Tubulin Polymerization Inhibition” value in the test on bovine brain tubulin is reported as “Y (Y = (% Inhibition versus control) ≤20%. Results with a compound concentration of 4 μM)”.
